Results published in article PMC2725396 (Clinical cancer research : an official journal of the …, 2008).
“And” between values parts separate entries of the source, which are not always exact repeats. Identical values can stand only once. Like-named read-outs stand apart in the source and are kept apart here.

Tests used:
BCRP [1] = biological target: T1, BCRP (Homo sapiens, UniProt Q9UNQ0); assay: Topotecan accumulation by flow microfluorimetry in MDA-MB-231/BCRP cells; assay type: cell-based
T1 sequence (Q9UNQ0 1-655): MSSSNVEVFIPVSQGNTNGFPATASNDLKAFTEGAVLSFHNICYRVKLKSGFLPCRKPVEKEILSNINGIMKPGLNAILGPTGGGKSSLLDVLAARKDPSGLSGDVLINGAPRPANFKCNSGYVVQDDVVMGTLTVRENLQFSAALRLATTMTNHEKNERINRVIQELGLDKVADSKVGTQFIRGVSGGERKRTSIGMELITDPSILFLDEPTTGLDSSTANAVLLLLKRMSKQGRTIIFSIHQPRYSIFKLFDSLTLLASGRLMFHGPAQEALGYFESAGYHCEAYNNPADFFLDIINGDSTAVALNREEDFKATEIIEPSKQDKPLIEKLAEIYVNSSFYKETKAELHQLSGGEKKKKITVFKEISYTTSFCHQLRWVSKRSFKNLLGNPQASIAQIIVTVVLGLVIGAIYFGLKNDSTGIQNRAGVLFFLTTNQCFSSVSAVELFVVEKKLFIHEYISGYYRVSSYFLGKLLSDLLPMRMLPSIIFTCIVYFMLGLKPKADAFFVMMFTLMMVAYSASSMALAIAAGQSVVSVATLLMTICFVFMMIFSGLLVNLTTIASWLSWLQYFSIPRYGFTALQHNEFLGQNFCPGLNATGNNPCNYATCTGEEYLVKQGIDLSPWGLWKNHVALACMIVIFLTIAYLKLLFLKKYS

[2] = test system: MDA-MB-231/empty vector cells; assay: Topotecan accumulation by flow microfluorimetry in MDA-MB-231/empty vector cells; assay type: cell-based; conditions: MDA-MB-231 cells transfected with empty vector
[3] = test system: MDA-MB-231/empty vector cells; assay: Clonogenic assay with topotecan plus lapatinib in MDA-MB-231/empty vector cells; assay type: cell-based; conditions: MDA-MB-231 cells transfected with empty vector, 1 µmol/L lapatinib, 24 h
Pgp [4] = biological target: Pgp (Cricetulus griseus, UniProt P21448); assay: Topotecan accumulation by flow microfluorimetry in CH^RC5 cells; assay type: cell-based, Chinese hamster; conditions: 1,000 nmol/L lapatinib, n = 3
AuxB1 cells = assay: Topotecan accumulation by flow microfluorimetry in AuxB1 cells; assay type: cell-based, Chinese hamster; conditions: AuxB1 cells (lower Pgp), compared with CH^RC5
[5] = test system: BT474 human breast carcinoma xenografts; assay: BT474 xenograft tumor growth inhibition; assay type: in vivo, CB-17 SCID mice
[6] = test system: patients with advanced solid tumors; assay: Phase I trial: MTD, DLTs and adverse events; assay type: in vivo, human
[7] = assay type: in vivo, human; conditions: fit of CLNRF ratio versus lapatinib steady-state Cmin, ±35%
Pgp [8] = conditions: cited from earlier work
BCRP [9] = biological target: T1, BCRP; conditions: read-out: in vitro Ki for inhibition of BCRP; cited from earlier work
[10] = cited from earlier work
[11] = single agent, cited from earlier work
[12] = Phase I trial: plasma pharmacokinetics of topotecan and lapatinib; conditions: for AUC(0-t) / Cmax / Topotecan CLp: n = 9, geometric mean and 95% CI; for Cmax: Topotecan Cmax; for half-life / Topotecan CLNRF / Topotecan Vss: geometric mean and 95% CI; for Topotecan CLNRF: CLp minus CLCR
[13] = geometric least squares mean ratio and 90% CI

Sequence of Pgp (Cricetulus griseus, UniProt P21448) (P21448 whole entry): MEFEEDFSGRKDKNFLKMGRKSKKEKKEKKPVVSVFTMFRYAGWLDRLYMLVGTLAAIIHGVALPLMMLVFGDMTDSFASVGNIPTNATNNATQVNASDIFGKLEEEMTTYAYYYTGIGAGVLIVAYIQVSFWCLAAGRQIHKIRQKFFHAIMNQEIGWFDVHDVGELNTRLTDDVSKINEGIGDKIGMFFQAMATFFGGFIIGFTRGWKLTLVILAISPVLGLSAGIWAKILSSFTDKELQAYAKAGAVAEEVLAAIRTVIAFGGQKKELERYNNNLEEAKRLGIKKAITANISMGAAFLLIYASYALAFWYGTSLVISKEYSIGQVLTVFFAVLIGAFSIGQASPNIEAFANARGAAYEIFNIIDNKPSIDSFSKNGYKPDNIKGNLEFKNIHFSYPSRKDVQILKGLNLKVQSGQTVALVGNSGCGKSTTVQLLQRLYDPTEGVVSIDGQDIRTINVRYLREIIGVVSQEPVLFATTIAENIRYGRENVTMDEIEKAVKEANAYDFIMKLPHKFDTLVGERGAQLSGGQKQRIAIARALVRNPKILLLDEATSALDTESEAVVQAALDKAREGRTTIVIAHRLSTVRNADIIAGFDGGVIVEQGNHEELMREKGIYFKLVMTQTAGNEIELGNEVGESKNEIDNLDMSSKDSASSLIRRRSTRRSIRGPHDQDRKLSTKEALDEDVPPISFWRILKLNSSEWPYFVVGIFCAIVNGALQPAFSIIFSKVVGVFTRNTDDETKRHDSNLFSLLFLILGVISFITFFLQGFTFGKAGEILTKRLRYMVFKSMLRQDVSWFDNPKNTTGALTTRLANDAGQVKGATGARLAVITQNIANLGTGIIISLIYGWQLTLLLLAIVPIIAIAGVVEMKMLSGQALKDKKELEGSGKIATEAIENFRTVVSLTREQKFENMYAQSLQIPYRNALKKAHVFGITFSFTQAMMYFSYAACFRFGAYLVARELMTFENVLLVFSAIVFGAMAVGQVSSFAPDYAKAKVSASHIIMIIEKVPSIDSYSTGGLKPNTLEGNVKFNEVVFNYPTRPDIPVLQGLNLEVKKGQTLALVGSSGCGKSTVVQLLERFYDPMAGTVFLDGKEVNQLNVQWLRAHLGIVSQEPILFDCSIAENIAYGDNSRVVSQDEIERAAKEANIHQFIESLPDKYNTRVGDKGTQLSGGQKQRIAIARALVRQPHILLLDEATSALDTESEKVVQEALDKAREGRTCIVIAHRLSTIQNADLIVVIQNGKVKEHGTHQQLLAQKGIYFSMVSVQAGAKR

CS(=O)(=O)CCNCc1ccc(-c2ccc3ncnc(Nc4ccc(OCc5cccc(F)c5)c(Cl)c4)c3c2)o1 [lapatinib]
EC50 (BCRP [1]): 250 nM
effect on intracellular topotecan [2]: little effect
effect on topotecan-induced inhibition of colony formation [3]: little effect
intracellular topotecan, % of steady-state accumulation in the absence of lapatinib (Pgp [4]): 220 ± 20%
effect on intracellular topotecan (AuxB1 cells): more modest
inhibition of BT474 tumor growth ([5]; lapatinib 30 mg/kg oral twice daily 21 d, study 2, day 70): 26%
inhibition of BT474 tumor growth ([5]; lapatinib 60 mg/kg oral twice daily 21 d, study 1, day 56): 79%
inhibition of BT474 tumor growth ([5]; lapatinib 100 mg/kg oral twice daily 21 d, study 1, day 56): 77%
inhibition of BT474 tumor growth ([5]; lapatinib 100 mg/kg oral twice daily 21 d, study 2, day 70): 82%
MTD and recommended phase II dose of lapatinib in the combination ([6]; for 28 days of a 28-day cycle): 1,250 mg/d
Ki (lapatinib concentration producing 50% inhibition of topotecan CLNRF) [7]: 2,349 ng/mL
in vitro Ki for inhibition of Pgp (Pgp [8]): 2,300 ng/mL
Ki (Pgp [8]; read-out: in vitro Ki for inhibition of Pgp): 3900 nM
Ki (BCRP [9]): 24.1 nM and 25 nM
Lapatinib AUC in mice ([10]; 30 mg/kg orally twice daily): 5000 ng·h/mL
Lapatinib Cmax in mice ([10]; 30 mg/kg orally twice daily): 1000 ng/mL
Lapatinib AUC in mice ([10]; 60 mg/kg orally twice daily): 29000 ng·h/mL
Lapatinib Cmax in mice ([10]; 60 mg/kg orally twice daily): 4000 ng/mL
Lapatinib AUC in mice ([10]; 100 mg/kg orally twice daily): 94000 ng·h/mL
Lapatinib Cmax in mice ([10]; 100 mg/kg orally twice daily): 9000 ng/mL
dose up to which lapatinib was well tolerated in phase I trials ([11]; diarrhea and rash dose limiting): up to 1,800 mg/d
AUC(0-t) ([12]; human, plasma, oral, Lapatinib AUC0–24 h, lapatinib + topotecan (day 8)): 31700 ng·h/mL
AUC(0-t) ([12]; human, plasma, oral, Lapatinib AUC0–24 h, lapatinib alone (day 7)): 23300 ng·h/mL
Tmax ([12]; human, plasma, oral, Lapatinib Tmax, lapatinib alone (day 7), median and range): 3 h

CC[C@@]1(O)C(=O)OCc2c1cc1n(c2=O)Cc2cc3c(CN(C)C)c(O)ccc3nc2-1 [topotecan]
inhibition of BT474 tumor growth ([5]; topotecan alone 6 mg/kg i.p. every 4 d × 3, study 2): 53%
inhibition of BT474 tumor growth ([5]; topotecan alone 10 mg/kg i.p. every 4 d × 3, study 1): 66%
inhibition of BT474 tumor growth ([5]; topotecan alone 10 mg/kg i.p. every 4 d × 3, study 2): 65%
MTD and recommended phase II dose of topotecan in the combination ([6]; i.v. on days 1, 8, 15 of a 28-day cycle): 3.2 mg/m^2
MTD for topotecan alone ([11]; × 3): 4 mg/m^2/wk
topotecan doses at which neutropenia is the principal toxicity [11]: above 4 mg/m^2/wk
increase of topotecan AUC0–24 h in the presence of lapatinib ([12]; (7–29%)): 18%
decrease of topotecan CLNRF when administered with lapatinib ([12]; (12–32%)): 22%
decrease in topotecan CLp when administered with lapatinib ([12]; day 8 versus day 1): 16%
Topotecan AUC0–24 h, day 8:day 1 ratio [12, 13]: 1.18 (1.07–1.29)
Topotecan CLNRF, day 8:day 1 ratio [12, 13]: 0.78 (0.68–0.88)
Topotecan CLp, day 8:day 1 ratio [12, 13]: 0.84 (0.76–0.92)
Topotecan Cmax, day 8:day 1 ratio [12, 13]: 0.79 (0.66–0.92)
Topotecan Vss, day 8:day 1 ratio [12, 13]: 0.99 (0.90–1.08)
Topotecan t1/2, day 8:day 1 ratio [12, 13]: 1.01 (0.96–1.06)
AUC(0-t) ([12]; human, plasma, intravenous, Topotecan AUC0–24 h, lapatinib + topotecan (day 8)): 510 ng·h/mL
AUC(0-t) ([12]; human, plasma, intravenous, Topotecan AUC0–24 h, topotecan alone (day 1)): 432 ng·h/mL
Cmax ([12]; human, plasma, intravenous, lapatinib + topotecan (day 8)): 128 ng/mL
Cmax ([12]; human, plasma, intravenous, topotecan alone (day 1)): 162 ng/mL
half-life ([12]; human, plasma, intravenous, Topotecan t1/2, lapatinib + topotecan (day 8)): 4.35 h
half-life ([12]; human, plasma, intravenous, Topotecan t1/2, topotecan alone (day 1)): 4.3 h
Topotecan CLNRF ([12]; lapatinib + topotecan (day 8)): 4.11 (2.72–5.50) L/h/m^2
Topotecan Vss ([12]; lapatinib + topotecan (day 8)): 30.1(23.9–36.3) L/m^2
Topotecan CLp ([12]; lapatinib + topotecan (day 8)): 6.14 L/h/m^2
Topotecan CLp ([12]; lapatinib + topotecan (day 8), listed as Topotecan): 6.14 (4.27–8.01) L/h/m^2
topotecan CLNRF as % of CLp ([12]; topotecan administered alone): 72%
Topotecan CLNRF ([12]; topotecan alone (day 1)): 5.25 (3.99–6.51) L/h/m^2
Topotecan Vss ([12]; topotecan alone (day 1)): 30.5 (26.5–34.5) L/m^2
Topotecan CLp ([12]; topotecan alone (day 1)): 7.28 L/h/m^2
Topotecan CLp ([12]; topotecan alone (day 1), listed as Topotecan): 7.28 (5.35–8.91) L/h/m^2
topotecan CLNRF as % of CLp ([12]; topotecan and lapatinib administered together): 66%
